Consider 92 compounds from PubChem BioAssay AID434951 (Broad Institute, 2010).

The structures appear in SMILES notation. The source made the active and inactive calls.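 How the source made its calls: active means a fitted half-maximal concentration EC50 for the rise in nuclear signal no higher than ten times the top dose tested; inconclusive means flat fit with activity between 30% and 70%, or unusable fit; inactive means EC50 beyond ten times the top dose.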 Bounds are passed on as bounds.

Hypoxia-inducible factor 1-alpha (Homo sapiens), sequence (Q16665 whole entry, looked up): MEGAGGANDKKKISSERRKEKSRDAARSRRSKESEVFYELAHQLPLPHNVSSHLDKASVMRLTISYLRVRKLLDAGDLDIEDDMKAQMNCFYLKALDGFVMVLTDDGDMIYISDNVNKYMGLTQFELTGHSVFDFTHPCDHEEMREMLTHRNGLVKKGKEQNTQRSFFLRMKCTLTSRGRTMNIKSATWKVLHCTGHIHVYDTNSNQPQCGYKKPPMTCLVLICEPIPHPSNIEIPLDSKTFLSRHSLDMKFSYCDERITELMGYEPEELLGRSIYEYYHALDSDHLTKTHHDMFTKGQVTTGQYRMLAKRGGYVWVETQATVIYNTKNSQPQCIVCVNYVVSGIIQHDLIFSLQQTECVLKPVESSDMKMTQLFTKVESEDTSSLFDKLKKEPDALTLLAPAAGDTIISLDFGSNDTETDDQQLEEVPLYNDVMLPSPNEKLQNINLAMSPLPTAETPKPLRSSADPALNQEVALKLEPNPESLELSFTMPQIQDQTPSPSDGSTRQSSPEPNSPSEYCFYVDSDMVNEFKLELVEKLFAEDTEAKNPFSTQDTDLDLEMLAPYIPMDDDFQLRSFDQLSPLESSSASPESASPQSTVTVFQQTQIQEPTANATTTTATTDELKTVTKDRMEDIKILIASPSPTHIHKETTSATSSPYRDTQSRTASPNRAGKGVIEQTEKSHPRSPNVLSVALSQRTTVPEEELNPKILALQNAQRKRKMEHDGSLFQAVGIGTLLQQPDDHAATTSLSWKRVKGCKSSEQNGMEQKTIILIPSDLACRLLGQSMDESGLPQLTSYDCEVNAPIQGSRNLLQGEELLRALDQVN

The assay concerns the target Hypoxia-inducible factor 1-alpha (Homo sapiens) (UniProt Q16665). Put plainly: HIF pathway activation, GFP-HIF1alpha translocation – imaging, fluorescence, U2OS GFP-HIF1alpha, confirmation (AID 434951). As to conditions: U2OS GFP-HIF1alpha nuclear intensity, high-content imaging.
Regarding `Cc1ccc(OC(C)C(=O)N2CC(=O)Nc3ccccc32)cc1` (configuration not stated), the EC50 was > 35 µM (inactive).
The result for `CC(=O)OCCCNc1cc(Sc2ccc(C)cc2)c2nonc2c1[N+](=O)[O-]` reads > 35 µM (inactive); that for `CCc1cnccc1CCC(=O)Nc1ccccc1C`, > 35 µM (inactive); that for `Cn1cccc1-c1cc(C(=O)N/N=C/c2cc(Br)ccc2O)[nH]n1`, 4.69 µM.
In the case of `CN(C)C(=O)CSc1nc2ccccc2n1Cc1ccccc1` it was > 35 µM (inactive).
In the case of `CCN1/C(=C/c2ccc3cc(C)ccc3[n+]2CC)Sc2ccccc21` it was 13.1 µM.
With `C1CC1Cc1noc(CN2CCN(CC3CC3)CC2)n1`, the EC50 is > 35 µM (inactive).
The result for `Oc1ccccc1N=Nc1ccccc1O` reads 2.01 µM; that for `CCN(CC)S(=O)(=O)c1ccc(N/N=C/c2ccc(O)cc2O)nc1`, 0.715 µM; that for `O=C(/C=C/c1ccccc1)NCCc1nc2ccccc2[nH]1`, > 35 µM (inactive).
The result for `COC(=O)C(NC(=O)c1c(C)nn(C)c1Cl)c1ccccc1` (configuration not stated) reads > 35 µM (inactive); that for `O=C(N/N=C\c1cc(Br)ccc1O)c1ccc(S(=O)(=O)N2CCCCC2)cc1`, 6.74 µM; that for `CCOc1ccccc1N(CC(=O)N/N=C/c1cc(Br)ccc1OC)S(C)(=O)=O`, > 35 µM (inactive).
For the compound `COC(=O)c1ccc(CSc2nc3c(c(=O)n2-c2ccc(F)cc2)SCC3)o1`, the EC50 is > 35 µM (inactive).
The result for `COc1ccccc1-c1cc(C(F)(F)F)nc(S(C)(=O)=O)n1` reads 18 µM; that for `O=C(NC(=S)Nc1ccccn1)c1cccc([N+](=O)[O-])c1`, > 35 µM (inactive).
In the case of `COc1ccc(-c2cc(C(F)(F)F)nc(S(=O)(=O)CCCC(=O)Nc3cc(C)on3)n2)cc1OC` it was > 35 µM (inactive); in that of `CCN(CC)c1ccc(NC(=O)CSc2nc3nc(C)cc(C)c3c(=O)[nH]2)cc1`, > 35 µM (inactive).
On to `COc1ccc(-n2c(C)cc(C(=O)CCl)c2C)cc1`, for which the EC50 is 12.4 µM.
In the case of `c1ccc(Cc2nnc(-c3ccccc3)o2)cc1` it was 17.7 µM; in that of `CCCc1[nH]nc2c1C(c1ccoc1)C(C#N)=C(N)O2` (configuration not stated), > 35 µM (inactive).
The result for `COc1ccc(CN2CCNC(=O)C2CC(=O)NC2CCCC2)c(OC)c1` (configuration not stated) reads > 35 µM (inactive); that for `Cc1cc(C)cc(NC(=O)c2cccc(NC(=O)c3ccco3)c2)c1`, > 35 µM (inactive); that for `CCOC(=O)c1c(C)[nH]c(C(=O)N/N=C\c2ccccc2O)c1C`, 5.66 µM.
Consider `CCOC(=O)c1c(-c2ccccc2)oc2cc(CN(C)C)c(O)c(CN(C)C)c12`, for which the EC50 was 5.53 µM.
In the case of `COc1ccc(-n2c(C)csc2=S)cc1` it was > 35 µM (inactive); in that of `COc1cccc(/C=N/NC(=O)c2ccc([N+](=O)[O-])cc2Cl)c1O`, > 35 µM (inactive).
`CC(C)COc1cccc(C(=O)NNC(=O)C2COc3ccccc3O2)c1` (configuration not stated): the EC50 was > 35 µM (inactive).
Turning to `O=[N+]([O-])c1ccc(OCCCCN2CCCCC2)cc1`, the EC50 was > 35 µM (inactive).
The result for `CCOc1ccc(N2C(=O)CC(Sc3nc(C)cc(C)n3)C2=O)cc1` (configuration not stated) reads > 35 µM (inactive).
The result for `COc1ccc(CC(=O)N2CCN(C(=O)Cc3ccc(OC)cc3)CC2)cc1` reads > 35 µM (inactive).
The result for `CCOC(=O)c1cc2c(ccn2C)n1CC(=O)N1CCN(c2ccccc2)CC1` reads > 35 µM (inactive).
Consider `CCCCn1c(=O)c2c(O)cc(=O)oc2c2ccccc21`, for which the EC50 is > 35 µM (inactive).
In the case of `COc1ccccc1NC(=O)c1nc(S(=O)(=O)Cc2ccccc2)ncc1Cl` it was > 35 µM (inactive); in that of `CCn1ncc(C2=NOC(C(=O)Nc3ccc4c(c3)OCO4)C2)c1C` (configuration not stated), > 35 µM (inactive); in that of `COc1ccc(OC)c(C2=Nn3c(nnc3-c3cc(C)[nH]n3)SC2)c1`, > 35 µM (inactive).
In the case of `Cc1cc([N+](=O)[O-])nn1Cc1ccc(C(=O)N/N=C/c2ccc(O)cc2O)cc1` it was 22.4 µM.
In the case of `Cc1ccc(C2=NS(=O)(=O)N(C)C(C(=O)NC3CCCC3)=C2)cc1` it was > 35 µM (inactive); in that of `CCN(CC)c1ccc(/C=N/NC(=O)c2cnccn2)c(O)c1`, 9.54 µM.
For the compound `COc1ccc(Cc2nnc(SCC(=O)NC3CCCCC3)n2C)cc1`, the EC50 was > 35 µM (inactive).
In the case of `CCCNC(=O)c1cc2nc(-c3ccccc3)cc(C(F)(F)F)n2n1` it was > 35 µM (inactive); in that of `COc1ccc(N/N=C(/N=Nc2nc(C)cc(=O)[nH]2)c2ccccc2)cc1`, 0.856 µM; in that of `CN(/N=C/c1c[nH]c2ccccc12)c1cnn(-c2ccc(F)c(Cl)c2)c(=O)c1Cl`, > 35 µM (inactive).
The result for `COc1ccc(/C=N/NC(=O)c2ccccc2O)cc1CSc1ccccn1` reads > 35 µM (inactive); that for `COc1ccccc1NC(=O)CN(C)S(=O)(=O)c1cccc2cccnc12`, > 35 µM (inactive).
In the case of `CCN(CC)S(=O)(=O)c1ccc(N/N=C/c2cc(OC)ccc2O)nc1` it was 4.31 µM; in that of `CC(C)C(=O)N1CCN(c2ccc(NC(=O)COc3ccccc3[N+](=O)[O-])cc2)CC1`, > 35 µM (inactive); in that of `Cc1nnc(SCc2cccc(Cl)c2)n(N)c1=O`, > 35 µM (inactive).
As for `Cc1cc(NC(c2cccnc2)c2ccc3cccnc3c2O)no1` (configuration not stated), the EC50 was 23.3 µM.
The result for `CCCC(=O)NC(c1cccs1)c1cc(Cl)c2cccnc2c1O` (configuration not stated) reads 7.25 µM; that for `CCC(=O)c1ccc(N2CCN(C(=O)c3ccc(Br)cc3)CC2)c(F)c1`, > 35 µM (inactive).
In the case of `CCC(C)NCCOc1ccc(C)cc1[N+](=O)[O-]` (configuration not stated) it was > 35 µM (inactive); in that of `Oc1[nH]c2ccc(Br)cc2c1N=NC(=S)N1CCOCC1`, 6.79 µM; in that of `CCCCCCn1nc(C(=O)Nc2nc3c(s2)CCCC3)c2ccccc2c1=O`, > 35 µM (inactive).
In the case of `CCOC(=O)c1c(-c2ccccc2)oc2ccc(OCC(O)CN(C)C)cc12` (configuration not stated) it was 33.8 µM.
On to `CC1CCN(C(=O)CS(=O)(=O)Cc2ccccc2)CC1`, for which the EC50 was > 35 µM (inactive).
The result for `CCN(C(=O)CSc1ncn[nH]1)C1CCCCC1` reads > 35 µM (inactive); that for `CCCN(CCC)C(=S)Nc1cc(C(=O)OC)ccc1C(=O)OC`, > 35 µM (inactive).
In the case of `O=C(C1=C[C@@H](C2CC2)C[C@@H](OCCCCO)O1)N1CCN(Cc2ccc3c(c2)OCO3)CC1` it was > 35 µM (inactive); in that of `CC(C)Sc1nc(N)c2c3c(sc2n1)CN(C)CC3`, > 35 µM (inactive); in that of `Cc1ccc(S(=O)(=O)N2CCOC23CCN(C(=O)c2cc(Cl)ccc2Cl)CC3)cc1`, > 35 µM (inactive).
The result for `N/C(=N\OC(=O)c1cccs1)c1ccc(Cl)cc1` reads > 35 µM (inactive); that for `Oc1c(N=Nc2ccccn2)ccc2ccccc12`, 3.98 µM.
As to `COC(=O)c1cc(S(=O)(=O)NCc2ccccc2OC)cn1C`, the EC50 was > 35 µM (inactive).
In the case of `COc1ccccc1N1CCN(Cc2ccc(O)c3ncccc23)CC1` it was 5.41 µM; in that of `O=C(NCC1CCCO1)c1cc(-c2ccccc2)on1` (configuration not stated), 6.78 µM.
The result for `Cc1ccc2[nH]c3c(=O)n(CC(=O)NCCCN(C)Cc4ccccc4)ncc3c2c1` reads > 35 µM (inactive); that for `Cc1ccc(-c2nc(CS(=O)(=O)CC(=O)NC3CCC(C)CC3)c(C)o2)cc1` (configuration not stated), > 35 µM (inactive).
The result for `CC(=O)N1CCC(=NNc2nc3ccccc3[nH]2)CC1` reads > 35 µM (inactive); that for `CCOc1ccccc1CN1CCN(S(C)(=O)=O)CC1`, > 35 µM (inactive).
Turning to `COc1ccc(C(CC(=O)Nc2ccccc2OC)n2cccc2)cc1` (configuration not stated), the EC50 is > 35 µM (inactive).
With `CC(OC(=O)COc1ccc(Nc2ccccc2)cc1)C(=O)N(C)c1ccccc1` (configuration not stated), the EC50 was > 35 µM (inactive).
In the case of `O=C(c1ccc(Cl)cc1Cl)N1CCN(c2ccc(N3CCOCC3)nn2)CC1` it was > 35 µM (inactive); in that of `CC(C)(C)c1cc(C(=O)N2CCN(c3ncccn3)CC2)ccn1`, > 35 µM (inactive).
With `COc1cc(C(=O)Oc2ccccc2/C=N/NC(=O)c2ccc(Cl)cc2)cc(OC)c1OC`, the EC50 is 35.8 µM.
In the case of `COc1ccc(CC(NC(C)=O)C(=O)NC2CCN(C(=O)c3cccc(Cl)c3)CC2)cc1OC` (configuration not stated) it was > 35 µM (inactive); in that of `O=C(O)c1ccccc1Nc1ccc([N+](=O)[O-])cc1C(=O)O`, > 35 µM (inactive); in that of `Cn1nnnc1N=N/C(=N/Nc1ccccc1)c1ccccc1`, 7.53 µM.
In the case of `COc1cccc(/C=N/NC(=O)c2c(C)nc3ccc(Br)cn23)c1O` it was 5.52 µM.
The result for `COc1cccc(/C=N/Nc2nccnc2Cl)c1O` reads 6.36 µM; that for `CCN(CC)CCn1nc2c3c(cccc3c1=O)-c1ccccc1-2`, > 35 µM (inactive); that for `O=C(NC(CSCc1ccccc1)C(=O)N/N=C/c1ccc(O)cc1O)c1ccc([N+](=O)[O-])cc1` (configuration not stated), 2.51 µM.
As to `O=C(N/N=C/c1c(O)ccc2ccccc12)c1cccnc1`, the EC50 was 0.678 µM.
The result for `Cc1ccn2cc(-c3ccc(O)c(O)c3)nc2c1` reads > 35 µM (inactive); that for `Oc1c(C(Nc2ccccn2)c2ccccn2)ccc2cccnc12` (configuration not stated), 3.98 µM; that for `COc1ccc(/C=N/NC(=O)c2nc(-c3ccccc3)n(-c3ccccc3)n2)c(O)c1`, 25.4 µM.
With `C=CCOc1ccc(/C=C2\SC(=Nc3cccnc3)NC2=O)cc1`, the EC50 was > 35 µM (inactive).
In the case of `CCOC(=O)C(=CNc1ccc(NC2=NCC(C)S2)cc1)C(=O)OCC` (configuration not stated) it was 8.3 µM; in that of `CNC(=O)C1CC(=O)N(c2ccc(OCC(=O)N3CCCC3)cc2)C1` (configuration not stated), > 35 µM (inactive); in that of `O=[N+]([O-])c1ccc(N/N=C/c2ccccc2O)cc1`, > 35 µM (inactive).
In the case of `Cc1ccc(/C=N\Nc2nc3ccc(Cl)cc3[nH]2)o1` it was > 35 µM (inactive); in that of `O=C(/C=C/c1cn(-c2ccccc2)nc1-c1ccccc1)Nc1ccc(C(=O)O)cc1`, > 35 µM (inactive).
